Source: patent US20210077668A1, “Highly Adherent Polymers for Orthopedic Device Coatings” (Clemson University Research Foundation, priority 2018, published 2021)

What was measured:
Format in all cases: cell-based
S. aureus [1] = assay: Maximum concentration of bacteria inactivated in the presence of 1 cm pieces of K-wires
Procedure: Control K-wires were coated with monolaurin (ML), a natural antimicrobial agent active against S. aureus. Sample K-wires were coated with a copolymer formed from 20 mole percent glycidyl methacrylate, 60 mole percent ethylene glycol methacrylate and 20 mole percent ethylene glycol methacrylate available as OEGMA 950 from Sigma Aldrich. Some of the K-wires were pulled through Septa™, to simulate surgical insertion, and the antimicrobial activity was measured. Each example was replicated nine times.

S. aureus [2] = assay: Bacteria count versus time with coated K-wires (FIG. 1)
Procedure: Additional tests were done wherein bacterial count was monitored versus time for different bacteria. In FIG. 1 the bacteria count was measured for S. aureus versus time. The K-wire alone as a control was ineffective as expected.

[3] = system: Methicillin-Resistant Staphylococcus Aureus (MRSA); assay: Bacteria count versus time with coated K-wires (FIG. 2)
S. aureus biofilms [4] = assay: Effectiveness against biofilms, K-wires incubated in S. aureus for 48 hours (FIG. 4); details: S. aureus 48 hours
Procedure: Effectiveness of the inventive examples against biofilms was determined. Samples were prepared including a control K-wire (Control), a K-wire coated with ML only but not passed through a Septa™ (ML Coated), a sample treated with ML and passed through a Septa™ (ML Coated Septa), and inventive examples comprising ML with polymer, using OEGMA as the hydrophilic moiety (ML/POEGMA). Some of the inventive samples were passed through a Septa™ (ML/POEGMA Septa). The samples were all incubated in S. aureus for 48 hours. The results are provided graphically in FIG. 4.

S. aureus biofilms [5] = assay: S. aureus biofilm formation on 1 cm K-wire pieces, 48 hours (Example 3)
Procedure: The performance of Copolymer A was compared to poly(lactide-co-glycolide) PLGA) with monolaurin as a model antimicrobial additive. S. aureus biofilms were grown by statically incubating a S. Aureus suspension with 1 cm K-wire pieces for 48 hours.

CCCCCCCCCCCC(=O)OCC(O)CO (centres unmarked) [ML, monolaurin]
Maximum concentration of bacteria inactivated in the presence of 1 cm pieced of K-wires (S. aureus [1]; No Polymer after Septa, ML 1 mg/ml): 0
Maximum concentration of bacteria inactivated in the presence of 1 cm pieced of K-wires (S. aureus [1]; No Polymer after Septa, ML 3 mg/ml): 0
Maximum concentration of bacteria inactivated in the presence of 1 cm pieced of K-wires (S. aureus [1]; No Polymer after Septa, ML 5 mg/ml): 0
Maximum concentration of bacteria inactivated in the presence of 1 cm pieced of K-wires (S. aureus [1]; No Polymer after Septa, ML 10 mg/ml): 0
Maximum concentration of bacteria inactivated in the presence of 1 cm pieced of K-wires (S. aureus [1]; No Polymer, no Septa, ML 1 mg/ml): ~6 × 10^6
Maximum concentration of bacteria inactivated in the presence of 1 cm pieced of K-wires (S. aureus [1]; No Polymer, no Septa, ML 3 mg/ml): ~7 × 10^6
Maximum concentration of bacteria inactivated in the presence of 1 cm pieced of K-wires (S. aureus [1]; No Polymer, no Septa, ML 5 mg/ml): ~6 × 10^6
Maximum concentration of bacteria inactivated in the presence of 1 cm pieced of K-wires (S. aureus [1]; No Polymer, no Septa, ML 10 mg/ml): ~8 × 10^6
bacteria count versus time (course) (S. aureus [2]): immediate decrease in bacteria due to essentially immediate release of ML, however, the activity was not sustained
bacteria count versus time (course) [3]: results similar to those observed for S. aureus
effectiveness against biofilms (S. aureus biofilms [4]; not passed through a Septa): effective resistance
effectiveness against biofilms (S. aureus biofilms [4]; passed through a Septa): removed or otherwise rendered ineffective
antimicrobial activity against biofilm formation (S. aureus biofilms [5]; after pulling the wires through silicon rubber Septa caps): lost the antimicrobial activity
prevention of biofilm formation (S. aureus biofilms [5]; before pulling through Septa, S. aureus 48 hours): efficient in preventing biofilm formation
